Assay results as given in publication PMC9926489, “Chemical Optimization of Selective Pseudomonas aeruginosa LasB Elastase Inhibitors and Their Impact on LasB-Mediated Activation of IL-1β in Cellular and Animal Infection Models” (ACS Infectious Diseases, 2023).

Key:
[1] = target: T1, MMP-1 (Homo sapiens, UniProt P03956); test: MMP-1 selectivity assay; format: biochemical; details: human MMP-1
T1 sequence (P03956 100-469): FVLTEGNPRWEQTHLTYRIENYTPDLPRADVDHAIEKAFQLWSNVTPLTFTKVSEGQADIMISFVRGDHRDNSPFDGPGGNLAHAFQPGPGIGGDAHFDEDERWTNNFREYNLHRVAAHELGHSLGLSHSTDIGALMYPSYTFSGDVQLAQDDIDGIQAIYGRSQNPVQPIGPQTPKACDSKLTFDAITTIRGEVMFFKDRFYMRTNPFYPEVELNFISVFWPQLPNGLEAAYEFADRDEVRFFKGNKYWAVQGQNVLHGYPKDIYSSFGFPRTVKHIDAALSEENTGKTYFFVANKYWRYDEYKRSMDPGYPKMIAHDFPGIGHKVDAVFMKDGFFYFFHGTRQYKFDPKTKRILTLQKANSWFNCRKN
Method: Selectivity of compound inhibition was evaluated against other proteases at concentrations between 0.4 and 200 μM. Activity against rabbit angiotensin-converting enzyme (ACE, Sigma) was assessed using 10 μM fluorogenic substrate Abz-Phe-Arg-Lys(Dnp)-P (Enzo Life Sciences) in 100 mM Tris-HCl pH 7, 50 mM NaCl, 10 μM Zn SO4. Activity against human matrix metalloproteases (MMP)-2 and MMP-9 was assessed in 50 mM HEPES pH 7.5, 10 mM CaCl2, 0.01% Triton X-100 using 4 μM fluorogenic substrate Mca-Pro-Leu-Gly-Leu-Dpa-Ala-Arg-NH2 (Enzo Life Sciences). Activity against MMP-1 and MMP-13 was assessed in 25 mM HEPES pH 7.5, 100 mM NaCl, 100 mM CaCl2, 0.0005% Brij using 7.5 μM fluorogenic substrate Mca-Lys-Pro-Leu-Gly-Leu-Dpa-Ala-Arg-NH2 (Sigma) for MMP-1 and 1.25 μM fluorogenic substrate Mca-Pro-Cha-Gly-Nva-His-Ala-Dpa-NH2 (Millipore) for MMP-13. Activity against human neutrophil elastase (HNE, Enzo Life Sciences) was assessed in 100 mM HEPES pH 7.5, 500 mM NaCl, 0.01% of Triton X-100 using 100 μM fluorogenic substrate MeOSuc-AAPV-AMC (Enzo Life Sciences).

[2] = Plasma protein binding by equilibrium dialysis; format: in vitro ADME; details: mouse plasma, 10 μM compound; read-out: PPB (mouse) % bound (converted)
Method: Mouse plasma protein binding (PPB) was determined by equilibrium dialysis with 10 μM compound over 4 h at 37 °C. Compound recoveries were determined by HPLC-MS/MS.

[3] = target: T2, LasB WT (PAO1 reference) (Pseudomonas aeruginosa, UniProt P14756); test: LasB variant inhibition, Abz-AGLA-Nba assay with culture supernatant: WT; format: biochemical, P. aeruginosa
T2 construct: endogenous in cells; host or cells: P. aeruginosa strains of WT lasB genotype, culture supernatant
From the text: (§1) Compounds 12 and 16 were discovered as a result of optimizing potency against the LasB protein expressed from the wild-type (WT) reference strain P. aeruginosa PAO1. To understand the relative prevalence of the WT LasB protein versus other variants in clinical respiratory P. aeruginosa strains, the full-length lasB gene was amplified by PCR from 255 clinical isolates (obtained from CF sputum samples). […] Most changes were identified in the mature peptide, however some occurred in the propeptide domain, which could affect LasB processing (marked in italics in Table 4).
(§2) LasB inhibition assays were performed using purified LasB enzyme (1 ng/well) for compound screening or using culture supernatants (prepared as described in the ECR assay) for testing LasB variants. Hydrolysis of the fluorogenic peptide substrate 2-aminobenzoyl-Ala-Gly-Leu-Ala-4-nitrobenzylamide (Abz-AGLA-Nba; Peptide International) in 50 mM Tris-HCl (pH 7.4), supplemented with 2.5 mM CaCl2 was followed using an Envision microplate reader (PerkinElmer) at 315 nm excitation and 430 nm emission. […] IC50 values were determined from Hill plots using Dotmatics Studies ELN software. For the mechanism of inhibition studies, hydrolysis rates were measured in the presence of variable concentrations of substrate and inhibitor, and the inhibition constant (Ki) was determined using Dixon plot analysis.[31]

[4] = target: T3, LasB S241G (Pseudomonas aeruginosa, UniProt P14756, S241G); test: LasB variant inhibition, culture supernatant: S241G; format: biochemical, P. aeruginosa
T3 construct: endogenous in cells; host or cells: P. aeruginosa clinical CF isolate, culture supernatant
From the text: as §1, §2

[5] = target: T4, LasB T65I (Pseudomonas aeruginosa, UniProt P14756); test: LasB variant inhibition, culture supernatant: T65I; format: biochemical, P. aeruginosa
T4 construct: endogenous in cells; host or cells: P. aeruginosa clinical CF isolate, culture supernatant
From the text: as §1, §2

[6] = target: T5, LasB N68S, T120I, A122T, S241G, S436L (Pseudomonas aeruginosa, UniProt P14756, S241G/S436L); test: LasB variant inhibition, culture supernatant: N68S, T120I, A122T, S241G, S436L; format: biochemical, P. aeruginosa
T5 construct: Most changes were identified in the mature peptide, however some occurred in the propeptide domain; endogenous in cells; host or cells: P. aeruginosa clinical CF isolate, culture supernatant
From the text: as §1, §2

[7] = test system: P. aeruginosa PAO1; test: Mouse P. aeruginosa lung infection model, bacterial numbers (CFUs) in lung homogenates; format: in vivo; details: C57Bl/6 mice, 24 h
Method: To investigate if compounds 12 and 16 were able to engage the LasB target in vivo, in the context of a P. aeruginosa lung infection, and to determine the consequences of that inhibition, immunocompetent C57Bl/6 mice were infected intranasally with P. aeruginosa PAO1 and treated with two doses of inhibitors, 10 and 30 mg/kg, administered IV at 1 and 4 h post-infection (Figure 5A). A control group of PAO1-infected animals treated with vehicle and a group of animals infected with the isogenic ΔlasB strain were included in the study. Mice were euthanized 24 h post-infection and their lung homogenates assayed for activated mature IL-1β (using the IL-1 reporter assay) and bacterial numbers (by CFU enumeration).
Infection experiments were approved by the Institutional Animal Care and Use Committee of Emory University. To prepare the bacterial inoculum, P. aeruginosa PAO1 (or its ΔlasB derivative) was grown in Luria broth with shaking at physiologic (37 °C) temperature for 18 h to maximally express LasB (at late log phase). Bacteria were then harvested, washed, and diluted in sterile phosphate-buffered saline (PBS) for delivery of 10^9 colony-forming units (CFUs) in 40 μL. For infection, female C57Bl/6 mice (five/group) were sedated using isofluorane and the bacterial suspension was slowly administered via micropipette between the nostrils and the animals were allowed to aspirate the inoculum via the normal breathing process. Compounds 12 and 16 were administered in PBS via injection (100 μL volume) to achieve doses of 10 and 30 mg/kg. The mice were euthanized 24 h post-infection and the lungs were excised. Active IL-1β was quantified by adding 100 μL of cell-free homogenate to IL-1β responsive HEK IL-1R-lux reporter cells. Activity was assayed by luminescence measured with D-luciferin substrate (Steady-Luc, Biotium) on a multimode reader (PerkinElmer) and expressed as relative luminescence units (RU). CFU was enumerated by dilution plating on Luria agar. Statistics were calculated by ANOVA with a Dunnett post-test.

[8] = 30 mg/kg IV at 1 and 4 h post-infection

T2 sequence (P14756 198-498): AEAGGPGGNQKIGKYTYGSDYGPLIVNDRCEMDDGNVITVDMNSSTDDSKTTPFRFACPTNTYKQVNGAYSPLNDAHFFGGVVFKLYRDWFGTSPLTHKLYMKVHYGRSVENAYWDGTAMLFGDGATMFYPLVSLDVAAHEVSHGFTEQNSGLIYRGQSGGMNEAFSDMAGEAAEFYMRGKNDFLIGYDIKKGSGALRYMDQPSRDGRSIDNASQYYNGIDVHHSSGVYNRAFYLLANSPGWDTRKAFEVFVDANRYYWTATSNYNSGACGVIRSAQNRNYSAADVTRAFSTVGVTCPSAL
T4 sequence (P14756 198-498, stated change not applied): as the sequence (P14756 198-498) above
T5 sequence (P14756 198-498, looked up, stated change not applied): as the sequence (P14756 198-498) above
T3 sequence (P14756 198-498 S241G): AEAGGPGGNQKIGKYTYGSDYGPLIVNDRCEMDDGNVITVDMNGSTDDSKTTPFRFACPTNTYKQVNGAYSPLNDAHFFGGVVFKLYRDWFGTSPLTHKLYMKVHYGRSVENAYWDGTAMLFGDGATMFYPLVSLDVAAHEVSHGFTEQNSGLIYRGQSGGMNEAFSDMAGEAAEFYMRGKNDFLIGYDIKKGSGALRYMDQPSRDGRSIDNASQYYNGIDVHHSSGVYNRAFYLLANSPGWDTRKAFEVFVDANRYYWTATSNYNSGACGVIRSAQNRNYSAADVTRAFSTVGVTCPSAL

| Compound | IC50 [1] | fraction unbound at 4 h, 10 μM [2] | IC50 [3] | IC50 [4] | IC50 [5] | IC50 [6] | log reduction in bacterial numbers (CFUs) in lung ([7]; 10 mg/kg IV at 1 and 4 h post-infection) | log reduction in bacterial numbers (CFUs) in lung [7, 8] |
| --- | --- | --- | --- | --- | --- | --- | --- | --- |
| COc1cc2sc(CNC(=O)C3(CC(=O)O)Cc4ccccc4C3)nc2cc1OCCC[N+](C)(C)C [Compound 12] | > 100000 nM | 0.24 | 222 nM | 221 nM | 216 nM | 267 nM | 0.48 log | 0.69 log |
| COc1cc2sc(CNC(=O)C3(CC(=O)O)Cc4cc(F)c(F)cc4C3)nc2cc1OCCC[N+](C)(CCO)CCO [Compound 16] | > 100000 nM | 0.18 | 177 nM | 206 nM | 182 nM | 253 nM |  | 0.47 log |
